Experimental findings from ChEMBL document CHEMBL2086392, “Isomannide derivatives as new class of inhibitors for human kallikrein 7” (Bioorg Med Chem Lett, 2012) are described below.

For series [1], the target named is T1, Kallikrein-5 (Homo sapiens, UniProt Q9Y337).
T1 sequence (Q9Y337 whole entry): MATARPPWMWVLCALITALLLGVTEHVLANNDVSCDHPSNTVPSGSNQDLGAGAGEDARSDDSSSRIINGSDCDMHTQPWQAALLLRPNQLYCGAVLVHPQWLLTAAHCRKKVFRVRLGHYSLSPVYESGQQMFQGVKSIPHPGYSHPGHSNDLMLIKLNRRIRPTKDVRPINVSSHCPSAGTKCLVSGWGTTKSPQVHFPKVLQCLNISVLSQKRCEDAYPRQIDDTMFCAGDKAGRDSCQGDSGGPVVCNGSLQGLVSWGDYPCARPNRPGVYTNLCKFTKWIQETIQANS
Kind of series: Inhibition of human recombinant KLK5 expressed in insect cell/baculovirus using Abz-KLYSSKQ-EDDnp as substrate by FRET analysis.

Series [2] deals with T2, Kallikrein-7 (Homo sapiens, UniProt P49862). In words: Inhibition of human recombinant KLK7 expressed in insect cell/baculovirus using Abz-KLYSSKQ-EDDnp as substrate by FRET analysis.
Series [3] has as its target T2, Kallikrein-7. Kind of series: Competitive inhibition of recombinant human KLK7 expressed in insect cell/baculovirus using Abz-KLYSSKQ-EDDnp as substrate by Dixon plot analysis.
The target of series [4] is T1, Kallikrein-5. In words: Competitive inhibition of human KLK5 expressed in insect cell/baculovirus using Abz-KLYSSKQ-EDDnp as substrate by Dixon plot analysis.
Series [5] can be described thus: Solubility of the compound in aqueous buffer. The format is physicochemical.
Series [6] can be described thus: Solubility of the compound in 10% DMSO. The format is physicochemical.

T2 sequence (P49862 whole entry): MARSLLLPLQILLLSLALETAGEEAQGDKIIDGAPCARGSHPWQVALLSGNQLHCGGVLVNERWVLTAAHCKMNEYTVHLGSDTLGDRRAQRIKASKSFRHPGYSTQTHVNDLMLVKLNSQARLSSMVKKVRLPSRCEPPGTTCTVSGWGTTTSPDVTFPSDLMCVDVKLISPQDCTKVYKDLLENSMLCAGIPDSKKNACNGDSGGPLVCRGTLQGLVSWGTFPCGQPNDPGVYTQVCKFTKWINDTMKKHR

Take `O=C(N[C@@H]1CO[C@H]2[C@@H]1OC[C@H]2OCc1ccccc1)/C(=C/c1ccco1)NC(=O)c1ccccc1` (stereo in doubt): the results for the IC50 at Kallikrein-5 [1] and at Kallikrein-7 [2] were 99.1 µM and 16.3 µM, respectively. Besides, the Ki was 3 µM at Kallikrein-7 [3] and 70.4 µM at Kallikrein-5 [4]. Further, the solubility entry in series [5] is given as “soluble”.
As to `O=C(N[C@@H]1CO[C@H]2[C@@H]1OC[C@H]2OCc1ccccc1)/C(=C/c1cc2ccccc2o1)NC(=O)c1ccccc1`, the solubility result in series [6] is “Insoluble”.
Turning to `O=C(N[C@@H]1CO[C@H]2[C@@H]1OC[C@H]2OCc1ccccc1)/C(=C/c1ccc2c(c1)OCO2)NC(=O)c1ccccc1` (stereo in doubt), the 50% inhibitory concentration (IC50) on Kallikrein-5 [1] is above 1000 µM; at Kallikrein-7 [2], 205 µM. Also, the inhibitory constant (Ki) on Kallikrein-7 [3] was determined as 80.3 µM; on Kallikrein-5 [4], 357 µM. Further, the solubility entry in series [5] is listed as “soluble”.
As for `O=C(N[C@@H]1CO[C@H]2[C@@H]1OC[C@H]2OCc1ccccc1)/C(=C/c1ccc(Cl)cc1)NC(=O)c1ccccc1` (stereo in doubt), the solubility result in series [6] is on record as “Insoluble”.
Regarding `O=C(N[C@@H]1CO[C@H]2[C@@H]1OC[C@H]2OCc1ccccc1)/C(=C/c1cccs1)NC(=O)c1ccccc1` (stereo in doubt), the results for the IC50 on Kallikrein-5 [1] and at Kallikrein-7 [2] were 99.2 µM and 13.3 µM, respectively. The Ki is 1.8 µM on Kallikrein-7 [3] and 70.7 µM on Kallikrein-5 [4]. Besides, in series [5], the solubility entry was “soluble”.
On to `O=C(N[C@@H]1CO[C@H]2[C@@H]1OC[C@H]2OCc1ccccc1)/C(=C/c1ccccc1)NC(=O)c1ccccc1`, for which the solubility result in series [6] is “Insoluble”.
The same measure, in the same setting: as for `O=C(N[C@@H]1CO[C@H]2[C@@H]1OC[C@H]2OCc1ccccc1)/C(=C/c1ccc(Br)cc1)NC(=O)c1ccccc1` (stereo in doubt), the entry is “Insoluble”.
On the same count and under the same terms, as for `O=C(N[C@@H]1CO[C@H]2[C@@H]1OC[C@H]2OCc1ccccc1)/C(=C/c1ccc(C(F)(F)F)cc1)NC(=O)c1ccccc1` (stereo in doubt), the entry is “Insoluble”; as for `O=C(N[C@@H]1CO[C@H]2[C@@H]1OC[C@H]2OCc1ccccc1)/C(=C/c1c[nH]c2ccccc12)NC(=O)c1ccccc1` (stereo in doubt), “Insoluble”; as for `O=C(N[C@@H]1CO[C@H]2[C@@H]1OC[C@H]2OCc1ccccc1)/C(=C/c1ccc2ccccc2c1)NC(=O)c1ccccc1`, “Insoluble”.
Turning to `COc1ccc(/C=C(\NC(=O)c2ccccc2)C(=O)N[C@@H]2CO[C@H]3[C@@H]2OC[C@H]3OCc2ccccc2)cc1` (stereo in doubt), the solubility entry in series [6] was “Insoluble”.
Regarding `O=C(N[C@@H]1CO[C@H]2[C@@H]1OC[C@H]2OCc1ccccc1)/C(=C/c1cccnc1)NC(=O)c1ccccc1` (stereo in doubt), the figures for the IC50 at Kallikrein-5 [1] and on Kallikrein-7 [2] were 324 µM and 196 µM, respectively. Moreover, the inhibition constant Ki came to 75.1 µM on Kallikrein-7 [3] and 200 µM on Kallikrein-5 [4]. Besides, in series [5], the solubility result is listed as “soluble”.
For `O=C(N[C@@H]1CO[C@H]2[C@@H]1OC[C@H]2OCc1ccccc1)/C(=C/c1cc2ccccc2s1)NC(=O)c1ccccc1`, the solubility entry in series [6] is on record as “Insoluble”.
Turning to `O=C(N[C@@H]1CO[C@H]2[C@@H]1OC[C@H]2OCc1ccccc1)/C(=C/c1ccc(F)cc1)NC(=O)c1ccccc1` (stereo in doubt), in series [6], the solubility result is recorded as “Insoluble”.
Take `CC(=O)N/C(=C\c1cccs1)C(=O)N[C@@H]1CO[C@H]2[C@@H]1OC[C@H]2OCc1ccccc1` (stereo in doubt): the IC50 on Kallikrein-5 [1] was 101 µM; on Kallikrein-7 [2], 161 µM. The Ki is 77.4 µM at Kallikrein-7 [3] and 71.9 µM at Kallikrein-5 [4]. The solubility entry in series [5] was “soluble”.
